Source: paper PMC5584945, “Evaluation of robenidine analog NCL195 as a novel broad-spectrum antibacterial agent” (PLoS ONE, 2017)
Where two headings read alike, the source gives them in different places.

Tests used:
[1] = system: Enterococcus faecalis ATCC 29212; experiment: MIC, broth micro-dilution (CLSI), control strain; assay type: cell-based; details: ATCC29212, absence of FBS
Procedure, shortened: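 MICs by CLSI broth micro-dilution, in duplicate, using serial two-fold dilutions starting at 128 μg/ml. Against Gram-negative species including N. meningitidis, MICs were measured with or without 0.08 mM-20 mM EDTA in a standard checkerboard. MIC50, MIC90 and range were derived per isolate set.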

[2] = system: panel of mammalian cell lines (Caco-2, HEL 299, Hep G2, MDBK, MCF7); experiment: In vitro cytotoxicity, WST-1, all cell lines tested; assay type: cell-based; details: lower bound over all the cell lines tested
Text: (§1) In order to ensure minimal off target mammalian cell cytotoxicity, we assayed NCL812, NCL195 and NCL219 for in vitro cytotoxicity using a panel of adherent mammalian cell lines: Caco-2 (human colorectal adenocarcinoma cell line), HEL 299 (non-cancerous human lung fibroblast cell line), Hep G2 (human hepatocellular carcinoma cell line), MDBK (normal bovine kidney cell line) and MCF7 (human mammary gland adenocarcinoma cell line). Cell lines were maintained in Dulbecco’s Modified Eagle’s Medium (DMEM; […] After 24 h incubation, media was removed, washed once with medium without antibiotics and fresh medium supplemented with 10% (vol/vol) FBS was added. […] Following exposure for 24 h, WST-1 reagent was added to each well at a final concentration of 10%. […] The IC50 value for each compound against each cell line was determined via non-linear regression (three parameters) using GraphPad Prism v6 software. The robustness of assays was confirmed with selected cell lines (Hep G2 and MDBK) seeded onto a 96–well Microwell Nunclon Delta Surface plate (Thermo Scientific Nunc; Cat No: 136101) at 5 × 10^4 cells per well.

[3] = system: Hep G2; experiment: Real-time cell viability, RealTime-Glo MT; assay type: cell-based, human; details: 2 or 8 μg/ml, up to 20 h post-treatment
[4] = LogD by gradient HPLC chromatographic method; assay type: physicochemical; details: pH 7.4
[5] = system: S. aureus; experiment: MIC, broth micro-dilution (CLSI); assay type: cell-based, Staphylococcus aureus; details: for MIC / MIC50 / MIC90: Staphylococcus aureus
[6] = system: MCF7; experiment: In vitro cytotoxicity, WST-1; assay type: cell-based; details: Homo sapiens, 24 h exposure, read-out: IC50 values ± SEM
Text: as §1

[7] = system: Caco-2; experiment: In vitro cytotoxicity, WST-1; assay type: cell-based; details: Homo sapiens, 24 h exposure, read-out: IC50 values ± SEM
Text: as §1

[8] = S2 Table isolates, absence of FBS

Cl.N=C(NN=Cc1ccc(Cl)cc1)NN=Cc1ccc(Cl)cc1 [NCL812, 2,2'-bis[(4-chlorophenyl)methylene] carbonimidic dihydrazide hydrochloride]
MIC [1]: 4 µg/mL
IC50 [2]: > 4 µg/mL
Effect on cell viability (real-time) [3]: affected viability at 8 μg/ml
chromatographic logD [4]: 4.5
Fold increase of MIC range in the presence of 10% FBS ([5]; 10% FBS versus no FBS): 4-8 fold
MIC range ([5]; 23 isolates): 2 to 8 µg/mL
MIC range ([5]; S2 Table isolates, 10% FBS): 32 µg/mL
MIC range [5, 8]: 2 to 8 µg/mL
MIC ([5]; ATCC 12600 / MSSA, ATCC12600 [Xen29] (MSSA), 10% FBS): 32 µg/mL
MIC ([5]; ATCC 12600 / MSSA, ATCC12600 [Xen29] (MSSA), absence of FBS): 4 µg/mL
MIC ([5]; ATCC 29213 / MSSA, ATCC29213 MSSA (ST5), 10% FBS, read-out: MIC): 32 µg/mL
MIC ([5]; ATCC 29213 / MSSA, ATCC29213 MSSA (ST5), absence of FBS, read-out: MIC): 4 µg/mL
MIC ([5]; ATCC 49775 / MSSA, ATCC 49775 (MSSA), 10% FBS, read-out: MIC): 32 µg/mL
MIC ([5]; ATCC 49775 / MSSA, ATCC 49775 (MSSA), absence of FBS, read-out: MIC): 2 µg/mL
MIC ([5]; IRISH 1 – HA-EMRSA (ST8), 10% FBS, read-out: MIC): 32 µg/mL
MIC ([5]; IRISH 1 – HA-EMRSA (ST8), absence of FBS, read-out: MIC): 2 µg/mL
MIC ([5]; IRISH 2 – HA-EMRSA (ST8), 10% FBS, read-out: MIC): 32 µg/mL
MIC ([5]; IRISH 2 – HA-EMRSA (ST8), absence of FBS, read-out: MIC): 2 µg/mL
MIC ([5]; MRSA / USA300, USA 300 - MRSA (ST8), 10% FBS, read-out: MIC): 32 µg/mL
MIC ([5]; MRSA / USA300, USA 300 - MRSA (ST8), absence of FBS, read-out: MIC): 2 µg/mL
MIC ([5]; MRSA, AUS2-MRSA (ST239), 10% FBS, read-out: MIC): 32 µg/mL
MIC ([5]; MRSA, AUS2-MRSA (ST239), absence of FBS, read-out: MIC): 2 µg/mL
MIC ([5]; MRSA, AUS3-MRSA (ST239), 10% FBS, read-out: MIC): 32 µg/mL
MIC ([5]; MRSA, AUS3-MRSA (ST239), absence of FBS, read-out: MIC): 2 µg/mL
MIC ([5]; MRSA, BENGAL BAY PVL+ – CA-MRSA (ST772), 10% FBS, read-out: MIC): 32 µg/mL
MIC ([5]; MRSA, BENGAL BAY PVL+ – CA-MRSA (ST772), absence of FBS, read-out: MIC): 2 µg/mL
MIC ([5]; MRSA, Classic–HA-MRSA (ST250), 10% FBS, read-out: MIC): 32 µg/mL
MIC ([5]; MRSA, Classic–HA-MRSA (ST250), absence of FBS, read-out: MIC): 2 µg/mL
MIC ([5]; MRSA, NY JAPAN – HA MRSA (ST5), 10% FBS, read-out: MIC): 32 µg/mL
MIC ([5]; MRSA, NY JAPAN – HA MRSA (ST5), absence of FBS, read-out: MIC): 2 µg/mL
MIC ([5]; MRSA, QLD PVL+ –CA-MRSA (ST93), 10% FBS, read-out: MIC): 32 µg/mL
MIC ([5]; MRSA, QLD PVL+ –CA-MRSA (ST93), absence of FBS, read-out: MIC): 2 µg/mL
MIC ([5]; MRSA, ST398–CA-MRSA-V (ST398), 10% FBS, read-out: MIC): 32 µg/mL
MIC ([5]; MRSA, ST398–CA-MRSA-V (ST398), absence of FBS, read-out: MIC): 2 µg/mL
MIC ([5]; MRSA, WA2–CA-MRSA (ST78), absence of FBS): 4 µg/mL
MIC ([5]; MRSA, WA84–CA-MRSA (ST45), absence of FBS): 4 µg/mL
MIC ([5]; MRSA, WSPP – PVL neg CA MRSA (ST30), absence of FBS, read-out: MIC): 2 µg/mL
MIC50 ([5]; S2 Table isolates, 10% FBS): 32 µg/mL
MIC90 ([5]; S2 Table isolates, 10% FBS): 32 µg/mL
MIC50 [5, 8]: 2 µg/mL
MIC90 [5, 8]: 4 µg/mL
MIC ([5]; TAIWAN PVL+ – CA-cMRSA (ST59), 10% FBS, read-out: MIC): 32 µg/mL
MIC ([5]; TAIWAN PVL+ – CA-cMRSA (ST59), absence of FBS, read-out: MIC): 2 µg/mL
MIC ([5]; UK 15 PVL+ – HA-EMRSA (ST22), 10% FBS, read-out: MIC): 32 µg/mL
MIC ([5]; UK 15 PVL+ – HA-EMRSA (ST22), absence of FBS, read-out: MIC): 4 µg/mL
MIC ([5]; UK 15 – HA-EMRSA (ST22), 10% FBS, read-out: MIC): 32 µg/mL
MIC ([5]; UK 15 – HA-EMRSA (ST22), absence of FBS, read-out: MIC): 4 µg/mL
MIC ([5]; UK 16 – HA- EMRSA (ST36), 10% FBS, read-out: MIC): 32 µg/mL
MIC ([5]; UK 16 – HA- EMRSA (ST36), absence of FBS, read-out: MIC): 4 µg/mL
MIC ([5]; UK 17 – HA-EMRSA (ST247), 10% FBS, read-out: MIC): 32 µg/mL
MIC ([5]; UK 17 – HA-EMRSA (ST247), absence of FBS, read-out: MIC): 2 µg/mL
IC50 [6]: 12 ± 0.2 µg/mL
IC50 [7]: 8.2 ± 0.1 µg/mL
